Results from patent publication US20060149045A1, “Steroid compounds with anti-tumor activity” (priority 2002, published 2006).

Columns and labels:
[1] = system: U-373 MG, Hs578T and/or A549 cancer cells; assay: Cell migration, summary over the cell lines; assay type: cell-based; conditions: at the weak studied concentrations; result in words
Method: (§1) Cells of different cancer lines, i.e. U-373 MG (Glioma cancer), Hs578T (breast cancer) and A549 (lung cancer) were seeded on culture flask 48 hours before the migration experiment. On the test day, cells were treated with or without compounds UBS881, UBS1664, UBS3285, UBS3327 and UBS3328 in closed Falcon dishes containing a buffered medium at a controlled temperature (37.0±0.1° C.) for 12 or 24 hours. The compounds were administered at two non-cytotoxic concentrations (10^−6 M and 10^−7 M) for UBS881 and UBS1664, and at 4 concentrations (10^−7 M to 10^−10 M) for UBS3285, UBS3327 and UBS3328. Migration of the cells was observed by means of a CCD-camera mounted on a phase-contrast microscope. A statistical analyse of the migration, with the non-parametric Mann-Whitney test, was established for 25% of the most motile cells and for the entire cell population for UBS881 and UBS1664, and established for 25%-50% of the most motile cells and for the entire cell population for UBS3285, UBS3327 and UBS3328 compounds. The table F below illustrates the anti-migratory effect of the compound according to the invention.

[2] = system: six human cancer cell lines (Hs683, U-373 MG, HCT-15, LoVo, A549, J82); assay: MTT test, summary over the six cell lines; assay type: cell-based; conditions: for cytotoxic / anti-tumor activity on the 6 tested cell lines: result in words, FIGS. 3, 4 and 6
Method: In order to characterize the in vitro activities of the compounds according to the invention, MTT tests were carried out. The MTT test, which is a well-known test in the art, is an indirect technique that rapidly measures, i.e. within 5 days, the effect of a given product on the overall cell growth. This test measures the number of metabolically active living cells that are able to transform the MTT product (3-(4,5-dimethylthiazol-2-yl)-2,5 diphenyl tetrazolium bromide), having a yellowish color, to the blue product formazan dye by mitochondrial reduction. The amount of formazan obtained at the end of the experiment is measured with a spectrophotometer and is directly proportional to the number of living cells. Determination of the optical density enables a quantitative measurement of the effect of the investigated compounds as compared to the control condition (untreated cells) and to compare it to other reference compound. In the following examples different compounds according to the invention were tested and compared to the reference compound being UBS881.
Six human cancer cell lines, described in Table D, were tested in the presence of the extract according to the invention. These cell lines represent four histological cancer types, being glioma cancer (cell line Hs683 and U-373 MG), colon cancer (cell lineHCT-15 and LoVo), lung cancer (cell line A549) and bladder cancer (cell line J82). […]
After 72 hours of incubation at 37° C. with the compound (experimental conditions) or without the compound (control condition), the medium was replaced by 100 μl MTT at the concentration of 1 mg/ml dissolved in RPMI. […] The micro wells were shaken for 5 minutes and read on a spectrophotometer at the wavelengths of 570 nm corresponding to the maximum formazan absorbance wavelength, and of 630 nm, which is the background noise wavelength.
For each experimental condition, the mean OD associated with the SEM (standard error of the mean) for each condition (6 wells) was calculated. The percentage of remaining living cells in comparison with the control was calculated. […]

[3] = system: U-373 MG (Glioma cancer) cells; assay: Cell migration, phase-contrast video microscopy; assay type: cell-based, human
Method: as §1

[4] = system: A549 (lung cancer) cells; assay: Cell migration, phase-contrast video microscopy; assay type: cell-based, human
Method: as §1

[5] = system: Hs578T (breast cancer) cells; assay: Cell migration, phase-contrast video microscopy; assay type: cell-based; conditions: for 24 hours on the 25% of most motile cells, at 10^−7 M
Method: as §1

[6] = for 24 hours on the 25% of most motile cells, at 10^−7 M

Question: Which results are given for `COc1ccc(OC)c(C2CC3C4CC(=O)C5=CC(=O)CCC5(C)C4CCC3(C)C2C(C)=O)c1` (centres unmarked) [UBS1664]?
Answer: migration level of cancer cells [1]: induced a decrease in the migration level; cytotoxic / anti-tumor activity on the 6 tested cell lines [2]: induced cytotoxic activity on all 6 tested cell lines; Max. effects (anti-migratory effect) [3, 6]: −27%/p < 0.001; Max. effects (anti-migratory effect) ([4]; for 12 hours on the entire cell population, at 10^−7 M): −15%/p < 0.05

Question: How did the “cytotoxic / anti-tumor activity on the 6 tested cell lines” value [2] turn out when `COc1ccc(OC)c(C(C)(O)C2CCC3C4CC=C5CC(O)CCC5(C)C4CCC32C)c1` (centres unmarked) [UBS1740] was run?
Answer: The value was “Hs683 and A549 cell lines were most sensitive”.

Question: With `COc1ccc(OC)c(C(C)(O)C2CCC3C4CC(=O)C5=CC(=O)CCC5(C)C4CCC32C)c1` (centres unmarked) [UBS1819] as the compound, how does the IC50 ([2]; Homo sapiens, 72 hours incubation, range over all 6 cell lines) read?
Answer: Its IC50 is 10 to 50 µM.

Question: For `COc1ccc(OC)c(C2CC3C4CC=C5CC(OC6O[C@H](CO)[C@H](O)[C@H](O)[C@H]6O)CCC5(C)C4CCC3(C)C2C(C)=O)c1` (some centres unmarked) [UBS3285], which “migration level of cancer cells” value [1] is on record?
Answer: The value was “induced a decrease in the migration level”.

Question: And the “Max. effects (anti-migratory effect)” value ([3]; for 24 hours on the 50% of most motile cells, at 10^−8 M)?
Answer: Its value is −22%/p < 0.001.

Question: What does the source list for `COc1ccc(OC)c(C2CC3C4CC=C5CC(OC6O[C@H](CO)[C@@H](O[C@@H]7O[C@H](CO)[C@@H](O)[C@H](O)[C@H]7O)[C@H](O)[C@H]6O)CCC5(C)C4CCC3(C)C2C(C)=O)c1` (some centres unmarked) [UBS3327]?
Answer: migration level of cancer cells [1]: induced a decrease in the migration level; Max. effects (anti-migratory effect) [5]: −21%/p < 0.001; Max. effects (anti-migratory effect) ([4]; for 24 hours on the 25% of most motile cells, at 10^−8 M): −34%/p < 0.001

Question: Which “migration level of cancer cells” value [1] does the source give for `COc1ccc(OC)c(C2CC3C4CC=C5CC(OC6O[C@H](CO[C@@H]7O[C@H](CO)[C@@H](O)[C@H](O)[C@H]7O)[C@@H](O)[C@H](O)[C@H]6O)CCC5(C)C4CCC3(C)C2C(C)=O)c1` (some centres unmarked) [UBS3328] here?
Answer: Its value is “induced a decrease in the migration level”.

Question: What about the “Max. effects (anti-migratory effect)” value ([3]; for 12 hours on the entire cell population, at 10^−10 M) of the same compound?
Answer: The value was −27%/p < 0.001.

Question: What about the “Max. effects (anti-migratory effect)” value [4, 6] of the same compound?
Answer: The value was −40%/p < 0.001.
